The record followed here is patent US20240158446A1, “CYCLIC COMPOUND HAVING SELECTIVE INHIBITORY ACTION ON KRAS OVER HRAS AND NRAS” (CHUGAI SEIYAKU KABUSHIKI KAISHA, priority 2021, published 2024).

The test system of assay [1] is human lung cancer strain NCI-H441.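 Further: cell proliferation inhibition after four days measured by CellTiter-Glo.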
Assay [2] deals with GDP-bound HRAS wild-type protein (Homo sapiens, UniProt P01112). The experiment in a line: Binding to HRAS by surface plasmon resonance (SPR), Single Cycle Kinetics. The settings on record: SPR, GDP-bound HRAS wild-type protein vs GDP-bound KRAS wild-type protein. A general note: SPR reads the build-up and loss of mass on a sensor chip optically.
The target of assay [3] is GDP-bound NRAS wild-type protein (Homo sapiens, UniProt P01111). The experiment in a line: Binding to NRAS by surface plasmon resonance (SPR), Single Cycle Kinetics. To be noted: SPR, GDP-bound NRAS wild-type protein vs GDP-bound KRAS wild-type protein.
Assay [4] concerns the target GDP-bound KRAS wild-type protein (Homo sapiens, UniProt P01116). Put plainly: Binding to KRAS by surface plasmon resonance (SPR), Single Cycle Kinetics. To be noted: GDP-bound KRAS wild-type protein, read-out: KRAS KD.

Read-outs that look alike come from different tables or passages of the source. Where a SMILES comes first, the peptide text is derived from it. Bridges are numbered along the chain shown (N, C = ends). [ ]: non-standard residue; d: D form. The star is where a group is joined. hPhe(3-Cl-4-CF3) = N[C@@H](CCc1ccc(C(F)(F)F)c(Cl)c1)C(=O)O; NEtPhe(4-Me) = CCN[C@@H](Cc1ccc(C)cc1)C(=O)O; NMeGly(cPent) = CN[C@H](C(=O)O)C1CCCC1; Hyp = O=C(O)[C@@H]1C[C@@H](O)CN1; NMeD = CN[C@@H](CC(=O)O)C(=O)O; NMeL = CN[C@@H](CC(C)C)C(=O)O; Morpholide = C1CN(*)CCO1; Ac5c = NC1(C(=O)O)CCCC1; Sar = CNCC(=O)O

Sequence of GDP-bound HRAS wild-type protein (P01112 whole entry): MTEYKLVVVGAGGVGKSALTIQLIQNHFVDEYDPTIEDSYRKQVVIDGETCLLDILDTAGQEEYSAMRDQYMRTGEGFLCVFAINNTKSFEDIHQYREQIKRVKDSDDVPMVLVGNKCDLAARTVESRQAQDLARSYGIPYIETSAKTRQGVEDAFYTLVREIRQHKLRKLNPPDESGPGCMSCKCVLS
Sequence of GDP-bound KRAS wild-type protein (P01116 whole entry): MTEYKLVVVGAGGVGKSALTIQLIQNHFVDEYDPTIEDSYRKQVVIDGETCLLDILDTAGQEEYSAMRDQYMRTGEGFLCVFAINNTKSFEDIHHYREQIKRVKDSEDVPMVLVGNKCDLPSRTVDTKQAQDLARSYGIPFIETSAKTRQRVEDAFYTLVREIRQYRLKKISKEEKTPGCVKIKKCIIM
Sequence of GDP-bound NRAS wild-type protein (P01111 whole entry): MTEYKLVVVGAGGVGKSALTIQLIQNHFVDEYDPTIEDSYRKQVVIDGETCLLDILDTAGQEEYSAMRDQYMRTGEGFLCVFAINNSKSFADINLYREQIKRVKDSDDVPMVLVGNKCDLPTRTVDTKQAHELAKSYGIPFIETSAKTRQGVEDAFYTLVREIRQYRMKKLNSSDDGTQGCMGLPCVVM

In assay [1], `CC[C@H](C)[C@@H]1NC(=O)[C@H](CC(C)C)N(C)C(=O)C[C@@H](C(=O)N2CCOCC2)N(C)C(=O)[C@H](C2CCCC2)N(C)C(=O)C2(CCC2)NC(=O)[C@@H]2[C@@H](OCC(F)F)CCN2C(=O)[C@H](CCc2cc(F)c(C(F)(F)F)c(F)c2)NC(=O)CN(C)C(=O)[C@H](Cc2ccc(C(F)(F)F)cc2)N2CCCCC[C@@H](C2=O)N(C)C(=O)CN(C)C1=O` [PP1012] returned an IC50 of 41.6 nM. Moreover, in assay [2], the “HRAS/KRAS (ratio of KD value for HRAS to KD value for KRAS)” value is “B (a compound having 3 or more and less than 10 is denoted as B)”. In addition, the “NRAS/KRAS (ratio of KD value for NRAS to KD value for KRAS)” value in assay [3] was “A (a compound having 10 or more and less than 20 is denoted as A)”. Moreover, the Kd in assay [4] (SPR, Single Cycle Kinetics) was 0.9 nM.

In assay [1], `CCO[C@@H]1C[C@H]2C(=O)NC3(CC(C)(C)C3)C(=O)N(C)[C@@H](C(CC)CC)C(=O)N(C)[C@H](C(=O)N(C)C)CC(=O)N(C)[C@@H](C(C)C)C(=O)N[C@@H]([C@@H](C)CC)C(=O)N(C)CC(=O)N(C)[C@H]3C/C=C\CCN(C3=O)[C@@H](CC3CCC(F)(F)CC3)C(=O)N(C)CC(=O)N[C@@H](CCc3ccc(C(F)(F)F)c(OC)c3)C(=O)N2C1` [PP2477] gave an IC50 of 127 nM. The “HRAS/KRAS (ratio of KD value for HRAS to KD value for KRAS)” value in assay [2] is “A (a compound having 10 or more and less than 20 is denoted as A)”. Besides, the “NRAS/KRAS (ratio of KD value for NRAS to KD value for KRAS)” value in assay [3] was “A (a compound having 10 or more and less than 20 is denoted as A)”. In assay [4] (SPR, Single Cycle Kinetics), the Kd worked out at 1.8 nM.

For `CC[C@H](C)[C@@H]1NC(=O)[C@H](CC(C)C)N(C)C(=O)C[C@@H](C(=O)N2CCOCC2)N(C)C(=O)[C@H](C2CCCC2)N(C)C(=O)C2(CCCC2)NC(=O)[C@@H]2C[C@@H](O)CN2C(=O)[C@H](CCc2ccc(C(F)(F)F)c(Cl)c2)NC(=O)CN(C)C(=O)[C@H](Cc2ccc(C)cc2)N(CC)C(=O)CN(C)C(=O)CN(C)C1=O` [PP0041] ([NMeL]I[Sar][Sar][NEtPhe(4-Me)][Sar][hPhe(3-Cl-4-CF3)][Hyp][Ac5c][NMeGly(cPent)][NMeD]-Morpholide; lactam N-11), in assay [1], the 50% inhibitory concentration (IC50) is 62.7 nM. For the same molecule, the “HRAS/KRAS (ratio of KD value for HRAS to KD value for KRAS)” value in assay [2] was “C (A compound having a KD ratio of 0.1 or more and less than 3 is denoted as C)”. In assay [3], the “NRAS/KRAS (ratio of KD value for NRAS to KD value for KRAS)” value is “B (a compound having 3 or more and less than 10 is denoted as B)”. In assay [4] (SPR Single Cycle Kinetics, 1:1 binding model), the Kd was determined as 0.12 nM.

For the molecule `CCO[C@@H]1C[C@H]2C(=O)NC3(CCC3)C(=O)N(C)[C@@H](C3CCCC3)C(=O)N(C)[C@H](C(=O)N(C)C)CC(=O)N(C)[C@@H](CC(C)C)C(=O)N[C@@H]([C@@H](C)CC)C(=O)N(C)CC(=O)N(C)[C@H]3C/C=C\CCN(C3=O)[C@@H](CC3CCC(F)(F)CC3)C(=O)N(C)CC(=O)N[C@@H](CCc3cc(F)c(C(F)(F)F)c(F)c3)C(=O)N2C1` [PP1453, (2S,8S,12R,14S,20S,23S,27S,30S,36S,38Z)-20-cyclopentyl-2-[(4,4-difluorocyclohexyl)methyl]-8-[2-[3,5-difluoro-4-(trifluoromethyl)phenyl]ethyl]-12-ethoxy-27-isobutyl-N,N,4,19,22,26,32,35-octamethyl-30-[(1S)-1-methylpropyl]-3,6,9,15,18,21,25,28,31,34,42-undecaoxo-spiro[1,4,7,10,16,19,22,26,29,32,35-undecazatricyclo[34.5.1.0^10,14]dotetracont-38-ene-17,1′-cyclobutane]-23-carboxamide], in assay [1], the IC50 is 13.6 nM. The “HRAS/KRAS (ratio of KD value for HRAS to KD value for KRAS)” value in assay [2] (KD ratio class) was “A (a compound having 10 or more and less than 20 is denoted as A)”. Further, the “NRAS/KRAS (ratio of KD value for NRAS to KD value for KRAS)” value in assay [3] (KD ratio class) is “A (a compound having 10 or more and less than 20 is denoted as A)”. In addition, the Kd in assay [4] (SPR, Single Cycle Kinetics, 1:1 binding model) was determined as 0.12 nM.

In general, IC50 refers to the concentration at which inhibition is half-maximal. A low value points to greater potency in that assay. The term Kd denotes the concentration at which binding is half-saturated.
